Measured values taken from patent US20230303712A1, “METHODS OF TREATING GLIOBLASTOMA” (Ramot at Tel-Aviv University Ltd., priority 2020, published 2023).
“Also recorded” adds a separate entry of the source.

Assays:
P-Selectin = biological target: T1, P-Selectin (Homo sapiens, UniProt P16109); conditions: cited from earlier work
T1 sequence (P16109 42-830): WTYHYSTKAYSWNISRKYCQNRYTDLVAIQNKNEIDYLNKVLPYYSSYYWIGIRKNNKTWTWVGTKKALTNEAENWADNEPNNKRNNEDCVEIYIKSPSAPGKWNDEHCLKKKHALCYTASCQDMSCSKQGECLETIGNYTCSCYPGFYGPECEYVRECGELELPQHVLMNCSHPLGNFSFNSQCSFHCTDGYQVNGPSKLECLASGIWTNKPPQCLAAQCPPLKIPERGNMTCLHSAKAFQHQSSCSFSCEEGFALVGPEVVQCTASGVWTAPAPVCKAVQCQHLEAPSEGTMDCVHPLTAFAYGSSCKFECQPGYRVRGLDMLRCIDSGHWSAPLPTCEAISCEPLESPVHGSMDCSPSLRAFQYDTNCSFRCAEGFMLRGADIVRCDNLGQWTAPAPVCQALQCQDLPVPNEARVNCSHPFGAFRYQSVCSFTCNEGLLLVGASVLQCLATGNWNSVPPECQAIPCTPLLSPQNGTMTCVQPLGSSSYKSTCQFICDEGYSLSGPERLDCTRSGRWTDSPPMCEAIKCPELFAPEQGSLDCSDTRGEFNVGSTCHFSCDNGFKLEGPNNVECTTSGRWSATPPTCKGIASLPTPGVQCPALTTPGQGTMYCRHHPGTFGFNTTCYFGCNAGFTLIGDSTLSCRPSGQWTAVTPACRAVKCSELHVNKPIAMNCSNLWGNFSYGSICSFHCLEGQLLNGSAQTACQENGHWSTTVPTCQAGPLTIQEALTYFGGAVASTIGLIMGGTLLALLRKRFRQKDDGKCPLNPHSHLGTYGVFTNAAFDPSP

[1] = Blood chemistry and blood count after systemic SELPi; type: in vivo, c57/BL mice; conditions: single IV dose 16 mg/kg, healthy mice, 24 h
Description: To test the effect of SELPi treatment in vivo on mice blood chemistry and blood count, c57/BL mice were injected with 16 mg/kg SELPi IV. Twenty-four hours following injecting, mice were euthanized and blood was collected. Blood samples were analyzed by AML Ltd (Herzliya, Israel). For all models, 50 × 10^3 GB cells were stereotactically injected in 5 µl at 1 µl/min flow rate. Injection coordination relative to the mouse Bregma point were: 2 mm lateral (left), 0.5 mm anterior, 3.5 mm ventral.

iAGR53 tumors = assay: SELPi treatment in murine mesenchymal iAGR53 GB model; type: in vivo, C57BL/6 mice; conditions: iAGR53, 16 mg/kg SELPi IV QOD
Description: (§1) Tumor volume was evaluated by MRI. […] Twelve days post cell inoculation, 3 mice per group were euthanized and brain were resected and further processed for histology analysis. […] Brain cannulas (NBT) were implanted intraventricularly in the co-lateral hemisphere and the mice were treated stereotactically via the cannulas (1 µl at 0.2 µl/min flow rate) with PBS, 2 mg/kg SELPi dissolved in DMSO or vehicle (DMSO). Three weeks post cell-inoculation, the mice were euthanized, the cannulas were removed, and tumor volume was evaluated by MRI (MR solutions). Brains were resected for immunostaining.
SELPi treatments. KF 38789 (SELPi) is a commercially-available P-Selectin inhibitor manufactured by Tocris BioScience. […] This compound is commonly used for research of immune-related processes such as tumor metastases formation. For the experiment described above, SELPi (0.8 mg/ml) was dissolved in DMSO (0.01%), polyethyleneglycol (93.2 mg/ml), Tween-80 (14.8 mg/ml) and DDW. Mice were injected with 16 mg/kg IV, twice a week, three times a week or QOD as described above. As control (vehicle), mice were injected with DMSO (0.01%), polyethyleneglycol (93.2 mg/ml), Tween-80 (14.8 mg/ml), in DDW at equivalent volume.
MRI imaging. Tumor bearing mice were imaged at the Sackler Cellular & Molecular Imaging Center (SCMIC), Tel Aviv University. […]

PD-GB4 tumors = assay: Local (intraventricular cannula) SELPi treatment in PD-GB PDX model; type: in vivo, SCID mice
Description: as §1
MRI imaging. Tumor bearing mice were imaged at the Sackler Cellular & Molecular Imaging Center (SCMIC), Tel Aviv University. Mice were anesthetized by ketamine (150 mg/kg) and xylazine (12 mg/kg) injected IP. T1 with contrast agent (Magnetol, Gd-DTPA, Soreq M.R.C. Israel Radiopharmaceuticals) and T2 weighted images were taken by 4.7T MRI - MRS 4000™ (MR solutions).

In the case of `COc1ccc(C2CC(c3c(O)cc(C)oc3=O)=NCCS2)c(OC)c1` (stereo not drawn) [SELPi, 3-[7-(2,4-Dimethoxyphenyl)-2,3,6,7-tetrahydro-1,4-thiazepin-5-yl]-4-hydroxy-6-methyl-2H-pyran-2-one], the IC50 (P-Selectin; P-Selectin inhibition) is listed as 1.97 µM, the “blocking of SELP-binding” value (P-Selectin; in vitro and in vivo) is listed as “block SELP-binding” and the “complete blood count: blood lymphocytes” value [1] is listed as “increase in the absolute amount of blood lymphocytes”. The blood chemistry ([1]; vs saline, vehicle) was “no significant changes”, the survival (iAGR53 tumors) was “prolonged the survival” and the “tumor volume (MRI)” value (iAGR53 tumors) was “significant reduction in tumor volume; also recorded: reduced tumor growth”. The “reduction in tumor volume (MRI)” value (PD-GB4 tumors; PD-GB4, 2 mg/kg SELPi intraventricular via cannula, 21 days post injection) was 67%, the “tumor growth (tumor volume, MRI)” value (PD-GB4 tumors; PD-GB4, local SELPi treatment, day 21) was “delayed growth” and the CD31 density (PD-GB4 tumors; PD-GB4 tumors) was “reduction”. The Iba1 density (PD-GB4 tumors; PD-GB4 tumors) was “reduction”, the “invasion of GB cells” value (PD-GB4 tumors; PD-GB4 tumors) was “reduced” and the “proliferation of GB cells” value (PD-GB4 tumors; PD-GB4 tumors) was “reduced”.
